Reference: US11166460B2, “α-amino acrylate microbicide, and preparation method therefor and uses thereof” (priority 2017, dated 2021)
In brackets after ≈: the same amount, converted by molar mass. Read-outs that look alike come from different tables or passages of the source.

What was measured:
Physalospora piricola = test: Fungicidal activity, fungi growth rate method, PP; type: cell-based; settings: 50 μg/mL
[1] = system: tobacco mosaic virus (TMV); test: Anti-TMV curative activity (treatment mode), live friction inoculation on tobacco seedlings; type: in vivo; settings: Tobacco mosaic virus, read-out: Anti-TMV activity, Curative effect (inhibition), 100 μg/mL, tobacco seedlings, checked on seventh day
[2] = system: tobacco mosaic virus (TMV); test: Anti-TMV protective activity (protection mode), live friction inoculation on tobacco seedlings; type: in vivo; settings: Tobacco mosaic virus, read-out: Anti-TMV activity, Protection effect (inhibition)
[3] = system: Phytophthora infestans (Mont) de Bary; test: microbe, parasite or virus in culture; type: cell-based; settings: Phytophthora infestans
Pellicularia sasakii = test: Fungicidal activity, fungi growth rate method, PS; type: cell-based; settings: 50 μg/mL
Alternaria solani = test: Fungicidal activity, fungi growth rate method, AS; type: cell-based; settings: Alternaria solani; 50 μg/mL; read-out: Fungicidal activity, inhibition, AS
[4] = system: tobacco mosaic virus (TMV); test: Anti-TMV inducing activity (induction mode), tobacco seedlings; type: in vivo; settings: Tobacco mosaic virus, read-out: Anti-TMV activity, Induction effect (inhibition), 100 μg/mL, tobacco seedlings
Botrytis cinerea = test: Fungicidal activity, fungi growth rate method, BC; type: cell-based; settings: Botrytis cinerea, 50 μg/mL
Rhizoctonia cerealis = test: Fungicidal activity, fungi growth rate method, RC; type: cell-based; settings: Ceratobasidium cereale; 50 μg/mL; read-out: Fungicidal activity, inhibition, RC
Cercospora arachidicola = test: Fungicidal activity, fungi growth rate method, CA; type: cell-based; settings: Mycosphaerella arachidis, 50 μg/mL
wheat Gibberella zeae = test: microbe, parasite or virus in culture; type: cell-based; settings: Fusarium graminearum
Sclerotinia sclerotiorum = test: microbe, parasite or virus in culture; type: cell-based; settings: Sclerotinia sclerotiorum; for inhibition at 50 µg/mL: 50 μg/mL; for EC90: read-out: EC90 against S. sclerotiorum in vitro
[5] = system: tobacco mosaic virus (TMV); test: Anti-TMV inactivation activity (inactivation mode), compound mixed with TMV before inoculation of tobacco leaves; type: in vivo; settings: Tobacco mosaic virus, read-out: Anti-TMV activity, Inactivation effect (inhibition)
[6] = read-out: Fungicidal activity, inhibition, PP
[7] = read-out: Fungicidal activity, inhibition, PI
[8] = read-out: Fungicidal activity, inhibition, PS
[9] = read-out: Fungicidal activity, inhibition, BC
[10] = read-out: Fungicidal activity, inhibition, CA
[11] = read-out: Fungicidal activity, inhibition, GZ
[12] = read-out: Fungicidal activity (inhibition) against SS: Sclerotinia sclerotiorum
[13] = read-out: Fungicidal activity, inhibition, SS

SMILES | inhibition at 50 µg/mL (Physalospora piricola; [6]) | inhibition at 100 µg/mL [1] | inhibition at 100 µg/mL [2] | inhibition at 50 µg/mL [3, 7] | inhibition at 50 µg/mL (Pellicularia sasakii; [8]) | inhibition at 50 µg/mL (Alternaria solani) | inhibition at 100 µg/mL [4] | inhibition at 50 µg/mL (Botrytis cinerea; [9]) | inhibition at 50 µg/mL (Rhizoctonia cerealis) | inhibition at 50 µg/mL (Cercospora arachidicola; [10]) | melting point | inhibition at 50 µg/mL (wheat Gibberella zeae; [11]) | inhibition at 50 µg/mL (Sclerotinia sclerotiorum; [12]) | inhibition at 50 µg/mL (Sclerotinia sclerotiorum; [13]) | inhibition at 100 µg/mL [5] | EC90 (Sclerotinia sclerotiorum) | further results
CC(C)(C)OC(=O)N1CCC(C(=O)N/C(=C\c2ccccc2)C(=O)N2CCC(O)(c3ccc(Br)cc3)CC2)CC1 [Compound 3, (Z)-N-[1-[[4-(4-bromophenyl)-4-hydroxy-1-piperidinyl]carbonyl]-2-phenylethenyl]-1-Boc-piperidine-4-carboxamide] | 21% | 59% | 51% | 19% | 23% | 32% | 0% | 24% | 26% | 25% | 145 to 147 °C | 34% | 60 to 80% | 75% | 14% | – | –
COc1ccc(C(=O)N/C(=C\c2ccccc2)C(=O)N2CCC(O)(c3ccc(Br)cc3)CC2)cc1 [Compound 5, (Z)-N-[1-[[4-(4-bromophenyl)-4-hydroxy-1-piperidinyl]carbonyl]-2-phenylethenyl]-4-methoxybenzamide] | 7% | 1% | 48% | 18% | 13% | 13% | 2% | 13% | 7% | 9% | 195 to 197 °C | 11% | 60 to 80% | 80% | 49% | – | –
O=C(N/C(=C\c1ccccc1)C(=O)N1CCC(O)(c2ccc(Br)cc2)CC1)c1ccc(F)cc1 [Compound 6, (Z)-N-[1-[[4-(4-bromophenyl)-4-hydroxy-1-piperidinyl]carbonyl]-2-phenylethenyl]-4-fluorobenzamide] | 49% | 15% | 45% | 50% | 54% | 31% | 6% | 48% | 51% | 49% | 129 to 130 °C | 44% | – | 96% | 50% | 218 µg/mL (≈ 416 µM) | inhibition at 50 µg/mL (Physalospora piricola; read-out: Fungicidal activity (inhibition) against PP: Physalospora piricola): 49%; inhibition at 50 µg/mL ([3]; read-out: Fungicidal activity (inhibition) against PI: Phytophthora infestans (Mont) de Bary): 50%; inhibition at 50 µg/mL (Pellicularia sasakii; read-out: Fungicidal activity (inhibition) against PS: Pellicularia sasakii): 54%; inhibition at 50 µg/mL (Botrytis cinerea; read-out: Fungicidal activity (inhibition) against BC: Botrytis cinerea): 48%; inhibition at 50 µg/mL (Cercospora arachidicola; read-out: Fungicidal activity (inhibition) against CA: Cercospora arachidicola): 49%
O=C(N/C(=C\c1ccccc1)C(=O)N1CCC(O)(c2ccc(Br)cc2)CC1)c1ccc(Cl)cc1 [Compound 7, (Z)-N-[1-[[4-(4-bromophenyl)-4-hydroxy-1-piperidinyl]carbonyl]-2-phenylethenyl]-4-chlorobenzamide] | 12% | 39% | 50% | 16% | 20% | 25% | 1% | 21% | 18% | 18% | 193 to 194 °C | 71% | – | 44% | 31% | – | inhibition at 50 µg/mL (wheat Gibberella zeae; read-out: Fungicidal activity (inhibition) against GZ: wheat Gibberella zeae): 71%
O=C(N/C(=C\c1ccccc1)C(=O)N1CCC(O)(c2ccc(Br)cc2)CC1)c1ccc(Br)cc1 [Compound 8, (Z)-N-[1-[[4-(4-bromophenyl)-4-hydroxy-1-piperidinyl]carbonyl]-2-phenylethenyl]-4-bromobenzamide] | 6% | 0% | 1% | 26% | 20% | 21% | 50% | 18% | 23% | 18% | 186 to 188 °C | 29% | – | 50% | 19% | – | –
O=C(N/C(=C\c1ccccc1)C(=O)N1CCC(O)(c2ccc(Br)cc2)CC1)c1ccc(C(F)(F)F)cc1 [Compound 9, (Z)-N-[1-[[4-(4-bromophenyl)-4-hydroxy-1-piperidinyl]carbonyl]-2-phenylethenyl]-4-(trifluoromethyl)benzamide] | 7% | 50% | 60% | 18% | 17% | 15% | 10% | 13% | 11% | 14% | 130 to 131 °C | 0% | 100% | 100% | 15% | 273 µg/mL (≈ 477 µM) | –
O=C(N/C(=C\c1ccccc1)C(=O)N1CCC(O)(c2ccc(Br)cc2)CC1)c1ccc([N+](=O)[O-])cc1 [Compound 10, (Z)-N-[1-[[4-(4-bromophenyl)-4-hydroxy-1-piperidinyl]carbonyl]-2-phenylethenyl]-4-nitrobenzamide] | 7% | 39% | 13% | 18% | 17% | 8% | 48% | 11% | 16% | 9% | 130 to 132 °C | 17% | 80 to 95% | 86% | 62% | – | –
O=C(N/C(=C\c1ccccc1)C(=O)N1CCC(O)(c2ccc(Br)cc2)CC1)c1cccc([N+](=O)[O-])c1 [Compound 11, (Z)-N-[1-[[4-(4-bromophenyl)-4-hydroxy-1-piperidinyl]carbonyl]-2-phenylethenyl]-3-nitrobenzamide] | 21% | 78% | 5% | 14% | 8% | 24% | 33% | 12% | 24% | 25% | 128 to 129 °C | 34% | 100% | 100% | 71% | 127 µg/mL (≈ 232 µM) | –
O=C(N/C(=C\c1ccccc1)C(=O)N1CCC(O)(c2ccc(Br)cc2)CC1)c1ccccc1[N+](=O)[O-] [Compound 12, (Z)-N-[1-[[4-(4-bromophenyl)-4-hydroxy-1-piperidinyl]carbonyl]-2-phenylethenyl]-2-nitrobenzamide] | 17% | 56% | 23% | 10% | 17% | 12% | 0% | 8% | 14% | 16% | 122 to 124 °C | 39% | 100% | 100% | 28% | 192 µg/mL (≈ 348 µM) | –
